Source: the supplement of paper PMC11208160

Assay: recombinant UMI read abundance after kanamycin selection (control-corrected) (log10(CPM+1)); higher = more efficient recombination; extreme values may be limits of the assay; sequences stand for … in AGTGCAGAGAAAATCGGCCAGTTTTCTCTGCCTGCAGTCCGCATGCCGTGGGACCCCTTGGGTTCTAACCTGTTGCCTAGATTTATGCAGCGGACTGCCTTTCTCCCAAAGTGATAAACCGG…AGGTTGGTTTCACT; site = the 11-nt donor
Summary of the method: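 Counts of recombinant UMIs were reported as log10(CPM+1). Before that, they were converted to CPM, averaged over replicates and scaled using control-derived factors. They came from PCR across the donor–target junction after Escherichia coli carrying the pair library and target plasmid was plated on IPTG (0.07 mM) plus kanamycin, or unselected, in two replicates each.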
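Also: IS621 bridge recombinase in Escherichia coli cells against a fixed T5 target plasmid.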

| Sequence | recombinant UMI read abundance (log10) |
| --- | --- |
| CCCTACTCATGGACCGGTTTTCCCGGTAATCCGTATTTGGG (site CCCTGCTCTCC) | 0.0112 |
| CCCTACTCATGGACCGGTTTTCCCGGTAATCCGTATTTGGG (site CCCTTCTCTCC) | 0.00875 |
| CCCTAGCCATGGACCGGTTTTCCCGGTAATCCGTATTTGGC (site CCCTAGCCTGA) | 0 |
| CCCTAGCCATGGACCGGTTTTCCCGGTAATCCGTATTTGGC (site CCCTAGCCTGC) | 0 |
| CCCTAGCCATGGACCGGTTTTCCCGGTAATCCGTATTTGGC (site CCCTAGCCTGG) | 0 |
| CCCTAGCCATGGACCGGTTTTCCCGGTAATCCGTATTTGGC (site CCCTAGCCTGT) | 0 |
| CCCTATCCATGGACCGGTTTTCCCGGTAATCCGTATTTGAC (site CCCTATCCTGT) | 0 |
| CCCTATTCATGGACCGGTTTTCCCGGTAATCCGTATTTGCT (site CCCTATTCTAG) | 1.7 |
| CCCTCCTCATGGACCGGTTTTCCCGGTAATCCGTATTTGCC (site CACTCCTCTGG) | 0.544 |
| CCCTCCTCATGGACCGGTTTTCCCGGTAATCCGTATTTGCC (site CCCTCCTCTGG) | 2.25 |
| CCCTCCTCATGGACCGGTTTTCCCGGTAATCCGTATTTGCC (site CGCTCCTCTGG) | 0 |
| CCCTCCTCATGGACCGGTTTTCCCGGTAATCCGTATTTGCC (site CTCTCCTCTGG) | 0.448 |
| CCCTCGCCATGGACCGGTTTTCCCGGTAATCCGTATTTGCC (site CCCTAGCCTGG) | 0 |
| CCCTCGCCATGGACCGGTTTTCCCGGTAATCCGTATTTGCC (site CCCTCGCCTGG) | 0 |
| CCCTCGCCATGGACCGGTTTTCCCGGTAATCCGTATTTGCC (site CCCTGGCCTGG) | 0 |
| CCCTCGCCATGGACCGGTTTTCCCGGTAATCCGTATTTGCC (site CCCTTGCCTGG) | 0.011 |
| CCCTCGGCATGGACCGGTTTTCCCGGTAATCCGTATTTGCT (site CCCTCGGCTAG) | 0.0794 |
| CCCTGTTCATGGACCGGTTTTCCCGGTAATCCGTATTTGGG (site CCCTGTTCTCC) | 0.00741 |
| CCCTTCGCATGGACCGGTTTTCCCGGTAATCCGTATTTGGG (site CCCTTCACTCC) | 0.0167 |
| CCCTTCGCATGGACCGGTTTTCCCGGTAATCCGTATTTGGG (site CCCTTCCCTCC) | 0 |
| CCCTTCGCATGGACCGGTTTTCCCGGTAATCCGTATTTGGG (site CCCTTCGCTCC) | 0.0148 |
| CCCTTCGCATGGACCGGTTTTCCCGGTAATCCGTATTTGGG (site CCCTTCTCTCC) | 0.0112 |
| CCGAAAGCATGGACCGGTTTTCCCGGTAATCCGTATTTGAT (site CCAAAAGCTAT) | 0.501 |
| CCGAAAGCATGGACCGGTTTTCCCGGTAATCCGTATTTGAT (site CCCAAAGCTAT) | 0 |
| CCGAAAGCATGGACCGGTTTTCCCGGTAATCCGTATTTGAT (site CCGAAAGCTAT) | 0.975 |
| CCGAAAGCATGGACCGGTTTTCCCGGTAATCCGTATTTGAT (site CCTAAAGCTAT) | 0.0026 |

| Sequence | recombinant UMI read abundance (log10) |
| --- | --- |
| CCGAAGACATGGACCGGTTTTCCCGGTAATCCGTATTTGGC (site CCGAAGACTGC) | 0 |
| CCGAATCCATGGACCGGTTTTCCCGGTAATCCGTATTTGTA (site CCGAATCCTTA) | 0 |
| CCGAATCCATGGACCGGTTTTCCCGGTAATCCGTATTTGTA (site CGGAATCCTAA) | 0.00532 |
| CCGAATGCATGGACCGGTTTTCCCGGTAATCCGTATTTGAT (site CCGAATGCTAT) | 0.919 |
| CCGAATTCATGGACCGGTTTTCCCGGTAATCCGTATTTGTT (site CCGAATTCTAA) | 0 |
| CCGAATTCATGGACCGGTTTTCCCGGTAATCCGTATTTGTT (site CGGAATCCTAA) | 0.00782 |
| CCGAGCGCATGGACCGGTTTTCCCGGTAATCCGTATTTGAA (site CCGAGCGCTTT) | 0.998 |
| CCGAGCTCATGGACCGGTTTTCCCGGTAATCCGTATTTGTA (site CCGAGCTCTTA) | 0.496 |
| CCGAGGCCATGGACCGGTTTTCCCGGTAATCCGTATTTGGC (site CCGAGGCCTGC) | 0 |
| CCGATAGCATGGACCGGTTTTCCCGGTAATCCGTATTTGTG (site CCGATAGCTCA) | 0.0444 |
| CCGATAGCATGGACCGGTTTTCCCGGTAATCCGTATTTGTG (site CCGCTAGCTCA) | 0.0063 |
| CCGATAGCATGGACCGGTTTTCCCGGTAATCCGTATTTGTG (site CCGGTAGCTCA) | 0.00966 |
| CCGATAGCATGGACCGGTTTTCCCGGTAATCCGTATTTGTG (site CCGTTAGCTCA) | 0.0148 |
| CCGATATCATGGACCGGTTTTCCCGGTAATCCGTATTTGGC (site CCGATATCTGC) | 0.68 |
| CCGATCTCATGGACCGGTTTTCCCGGTAATCCGTATTTGAG (site CCGATCTCTCT) | 0.00289 |
| CCGCACACATGGACCGGTTTTCCCGGTAATCCGTATTTGGT (site CCGCACACTAC) | 0.509 |
| CCGCACACATGGACCGGTTTTCCCGGTAATCCGTATTTGTA (site CCACACACTTA) | 0.587 |
| CCGCACACATGGACCGGTTTTCCCGGTAATCCGTATTTGTA (site CCCCACACTTA) | 0.0105 |
| CCGCACACATGGACCGGTTTTCCCGGTAATCCGTATTTGTA (site CCGCACACTTA) | 0.895 |
| CCGCACACATGGACCGGTTTTCCCGGTAATCCGTATTTGTA (site CCTCACACTTA) | 0.00457 |
| CCGCATGCATGGACCGGTTTTCCCGGTAATCCGTATTTGCT (site CCGCATGCTAG) | 0.291 |
| CCGCATTCATGGACCGGTTTTCCCGGTAATCCGTATTTGCG (site CCGCATTCTCG) | 0.57 |
| CCGCCAGCATGGACCGGTTTTCCCGGTAATCCGTATTTGGG (site CCGCCAGCTCC) | 0 |
| CCGCCTCCATGGACCGGTTTTCCCGGTAATCCGTATTTGGC (site CCGCCTCCTGC) | 0 |
| CCGCGCACATGGACCGGTTTTCCCGGTAATCCGTATTTGTA (site CCGCGCACTTA) | 0.0144 |
| CCGCGCACATGGACCGGTTTTCCCGGTAATCCGTATTTGTT (site CCGCGCACTAA) | 0.0199 |
